Test results as given in US6093732A, “4-hydroxyquinoline-3-carboxamides and hydrazides as antiviral agents” (Pharmacia & Upjohn Company, priority 1998, dated 2000).
pIC50: −log10 of the molar value.

Target: T1, HCMV polymerase (Human cytomegalovirus, UniProt P08546)
T1 construct: made in house; host or cells: recombinant baculovirus-infected SF-9 cells
Test: HCMV polymerase scintillation proximity assay (SPA), modified version
Type: biochemical
Details: CMV polymerase; Table 1; modified assay with 4.5 mM DTT, compounds in 100% DMSO; read-out: Antiviral Selective Polymerase IC50 Values, CMV
Experimental: The HCMV polymerase assay is performed using a scintillation proximity assay (SPA) as described in several references, such as N. D. Cook, et al., Pharmaceutical Manufacturing International, pages 49-53 (1992); K. Takeuchi, Laboratory Practice, September issue (1992); U.S. Pat. No. 4,568,649 (1986); which are incorporated by reference herein. Reactions are performed in 96-well plates. The assay is conducted in 100 μl volume with 5.4 mM HEPES (pH 7.5), 11.7 mM KCl, 4.5 mM MgCl2, 0.36 mg/ml BSA, and 90 nM ^3 H-dTTP. Assays are run with and without CHAPS, (3-[(3-Cholamidopropyl)-dimethylammonio]-1-propane-sulfonate) at a final concentration of 2 mM. HCMV polymerase is diluted in enzyme dilution buffer containing 50% glycerol, 250 mM NaCl, 10 mM HEPES (pH 7.5), 100 μg/ml BSA, and 0.01% sodium azide. The HCMV polymerase, which is expressed in recombinant baculovirus-infected SF-9 cells and purified according to literature procedures, is added at 10% (or 10 μl) of the final reaction volume, i.e., 100 μl. Compounds are diluted in 50% DMSO and 10 μl are added to each well. Control wells contain an equivalent concentration of DMSO. Unless noted otherwise, reactions are initiated via the addition of 6 nM biotinylated poly(dA)-oligo(dT) template/primer to reaction mixtures containing the enzyme, substrate, and compounds of interest. Plates are incubated in a 25° C. or 37° C. H2 O bath and terminated via the addition of 40 μl/reaction of 0.5 M EDTA (pH 8) per well. Reactions are terminated within the time-frame during which substrate incorporation is linear and varied depending upon the enzyme and conditions used, i.e., 30 min. for HCMV polymerase. Ten μl of streptavidin-SPA beads (20 mg/ml in PBS/10% glycerol) are added following termination of the reaction. Plates are incubated 10 min. at 37° C., then equilibrated to room temperature, and counted on a Packard Topcount. Linear regressions are performed and IC50 's are calculated using computer software.
A modified version of the above HCMV polymerase assay is performed as described above, but with the following changes: Compounds are diluted in 100% DMSO until final dilution into assay buffer. In the previous assay, compounds are diluted in 50% DMSO. 4.5 mM dithiotherotol (DTT) is added to the polymerase buffer. […] Other viral polymerase assays are performed using procedures similar to those described above.

T1 sequence (P08546 whole entry): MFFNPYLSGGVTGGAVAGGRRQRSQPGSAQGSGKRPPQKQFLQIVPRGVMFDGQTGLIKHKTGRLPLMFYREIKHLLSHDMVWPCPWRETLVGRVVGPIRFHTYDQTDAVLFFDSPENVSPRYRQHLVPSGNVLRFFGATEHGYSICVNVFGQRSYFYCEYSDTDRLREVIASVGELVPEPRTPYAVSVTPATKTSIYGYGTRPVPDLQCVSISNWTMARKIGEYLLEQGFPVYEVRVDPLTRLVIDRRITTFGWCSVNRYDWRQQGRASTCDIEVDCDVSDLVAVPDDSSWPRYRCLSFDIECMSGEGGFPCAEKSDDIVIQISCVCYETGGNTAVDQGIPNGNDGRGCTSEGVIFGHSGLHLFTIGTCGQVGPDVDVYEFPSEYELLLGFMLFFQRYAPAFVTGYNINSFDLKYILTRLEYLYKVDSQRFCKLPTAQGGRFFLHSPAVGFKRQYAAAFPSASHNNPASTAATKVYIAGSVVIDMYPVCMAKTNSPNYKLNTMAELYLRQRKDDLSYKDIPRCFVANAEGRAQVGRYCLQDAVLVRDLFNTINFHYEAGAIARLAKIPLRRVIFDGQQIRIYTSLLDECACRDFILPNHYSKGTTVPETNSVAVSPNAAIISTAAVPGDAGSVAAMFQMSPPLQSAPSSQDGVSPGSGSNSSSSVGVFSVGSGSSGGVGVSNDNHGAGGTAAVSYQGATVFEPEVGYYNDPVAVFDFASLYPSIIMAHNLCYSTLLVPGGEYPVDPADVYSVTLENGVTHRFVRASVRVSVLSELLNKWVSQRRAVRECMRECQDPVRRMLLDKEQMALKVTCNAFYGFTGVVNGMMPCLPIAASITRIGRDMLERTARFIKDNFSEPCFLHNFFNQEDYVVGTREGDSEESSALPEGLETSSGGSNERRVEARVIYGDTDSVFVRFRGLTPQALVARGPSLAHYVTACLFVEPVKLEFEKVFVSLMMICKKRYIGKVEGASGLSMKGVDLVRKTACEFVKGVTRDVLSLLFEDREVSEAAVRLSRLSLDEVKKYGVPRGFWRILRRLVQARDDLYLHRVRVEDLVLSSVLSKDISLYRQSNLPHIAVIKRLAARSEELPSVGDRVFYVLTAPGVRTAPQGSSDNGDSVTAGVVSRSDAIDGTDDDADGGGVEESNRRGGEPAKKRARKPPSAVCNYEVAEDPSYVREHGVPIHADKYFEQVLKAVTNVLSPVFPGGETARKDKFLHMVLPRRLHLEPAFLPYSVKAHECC

Row | SMILES | pIC50
1 | O=C(NCc1ccc(Cl)cc1)c1cnc2c(Cl)ccc(C(F)(F)F)c2c1O [Example 59, 8-Chloro-N-((4-chlorophenyl)methyl)-4-hydroxy-5-trifluoro-methyl-3-quinolinecarboxamide] | 4.48
2 | COc1cc(OC)c2ncc(C(=O)NCc3ccc(Cl)cc3)c(O)c2c1 [Example 60, N-((4-Chlorophenyl)methyl)-4-hydroxy-6,8-dimethoxy-3-quinolinecarboxamide] | 5.40
3 | COc1cc2ncc(C(=O)NCc3ccc(Cl)cc3)c(O)c2cc1OC [Example 61, N-((4-Chlorophenyl)methyl)-4-hydroxy-6,7-dimethoxy-3-quinolinecarboxamide] | 5.51
4 | Cc1cccc2ncc(C(=O)NCc3ccc(Cl)cc3)c(O)c12 [Example 62, N-((4-Chlorophenyl)methyl)-4-hydroxy-5-methyl-3-quinoline-carboxamide] | 5.34
5 | CC(C)(C)c1ccc2ncc(C(=O)NCc3ccc(Cl)cc3)c(O)c2c1 [Example 63, N-[(4-Chlorophenyl)methyl]-6-(1,1-dimethylethyl)-4-hydroxy-3-quinolinecarboxamide] | 5.15
6 | O=C(NCc1ccc(Cl)cc1)c1cnc2cc3c(cc2c1O)CCC3 [Example 64, N-[(4-Chlorophenyl)methyl]-7,8-dihydro-4-hydroxy-6H-cyclopent a[g]quinoline-3-carboxamide] | 5.07
7 | CSc1cccc2c(=O)c(C(=O)NCc3ccc(Cl)cc3)c[nH]c12 [Example 65, N-[(4-Chlorophenyl)methyl]-1,4-dihydro-8-(methylthio)-4-oxo-3-quinolinecarboxamide] | 5.48
8 | O=C(NCc1ccc(Cl)cc1)c1cnc2ccc3ncsc3c2c1O [Example 66, N-[(4-Chlorophenyl)methyl]-9-hydroxythiazolo[5,4-f]quinoline-8-carboxamide] | 6.54
9 | O=C(NCc1ccc(Cl)cc1)c1cnc2cc(C(F)(F)F)c(SCc3ccccc3)cc2c1O [Example 72, N-[(4-Chlorophenyl)methyl]-4-hydroxy-6-[(phenylmethyl)thio]-7-(trifluoromethyl)-3-quinolinecarboxamide] | 5.03
10 | O=C(NCc1ccc(Cl)cc1)c1cnc2cccc(C(F)(F)F)c2c1O [Example 76, N-((4-Chlorophenyl)methyl)-4-hydroxy-5-trifluoromethyl-3-quinolinecarboxamide] | 5.28
11 | Cc1ccccc1-c1cc(F)c2ncc(C(=O)NCc3ccc(Cl)cc3)c(O)c2c1 [Example 77, N-((4-Chlorophenyl)methyl)-8-fluoro-4-hydroxy-6-(2-methyl-phenyl)-3-quinolinecarboxamide] | 5.40
12 | O=C(NCc1ccc(Cl)cc1)c1cnc2c(OC3CCOCC3)c(F)c(F)cc2c1O [Example 78, N-((4-Chlorophenyl)methyl)-6,7-difluoro-4-hydroxy-8-(tetrahydro-2H-pyran-4-oxy)-3-quinolinecarboxamide] | 6.15
13 | COc1c(F)c(F)cc2c(O)c(C(=O)NCc3ccc(Cl)cc3)cnc12 [Example 79, N-((4-Chlorophenyl)methyl)-6,7-difluoro-4-hydroxy-8-methoxy-3-quinolinecarboxamide] | 6.02
14 | COc1c(F)cc2c(O)c(C(=O)NCc3ccc(Cl)cc3)cnc2c1OC [Example 80, N-((4-Chlorophenyl)methyl)-7,8-dimethoxy-6-fluoro-4-hydroxy-3-quinolinecarboxamide] | 5.62
15 | O=C(NCc1ccc(Cl)cc1)c1cnc2c(F)c(Oc3ccc(CO)cc3)c(F)cc2c1O [Example 81, N-((4-Chlorophenyl)methyl)-6,8-difluoro-4-hydroxy-7-(4-(hydroxymethyl)phenoxy)-3-quinolinecarboxamide] | 5.11
16 | COc1c(F)cc2c(O)c(C(=O)NCc3ccc(Cl)cc3)cnc2c1F [Example 82, N-((4-Chlorophenyl)methyl)-6,8-difluoro-4-hydroxy-7-methoxy-3-quinolinecarboxamide] | 5.60
17 | COCCOc1c(F)cc2c(O)c(C(=O)NCc3ccc(Cl)cc3)cnc2c1F [Example 83, N-((4-Chlorophenyl)methyl)-6,8-difluoro-4-hydroxy-7-(2-(methoxy)ethoxy)-3-quinolinecarboxamide] | 5.37
18 | COCCOc1c(F)c(F)cc2c(O)c(C(=O)NCc3ccc(Cl)cc3)cnc12 [Example 84, N-((4-Chlorophenyl)methyl)-6,7-difluoro-4-hydroxy-8-(2-(methoxy)ethoxy)-3-quinolinecarboxamide] | 6.10
19 | COCCOc1c(F)cc2c(O)c(C(=O)NCc3ccc(Cl)cc3)cnc2c1OCCOC [Example 85, N-((4-Chlorophenyl)methyl)-6-fluoro-7,8-di(2-(methoxy)ethoxy)-4-hydroxy-3-quinolinecarboxamide] | 4.74

The next lines start with the values.

Row | pIC50 | SMILES
20 | 4.97 | CC(C)Oc1c(F)cc2c(O)c(C(=O)NCc3ccc(Cl)cc3)cnc2c1F [Example 86, N-((4-Chlorophenyl)methyl)-6,8-difluoro-4-hydroxy-7-(1-methylethoxy)-3-quinolinecarboxamide]
21 | 5.10 | O=C(NCc1ccc(Cl)cc1)c1cnc2c(F)cc(-c3nccs3)cc2c1O [Example 87, N-(4-Chlorobenzyl)-8-fluoro-4-hydroxy-6-(1,3-thiazol-2-yl)-3-quinolinecarboxamide]
22 | 4.52 | COCCNc1c(F)cc2c(O)c(C(=O)NCc3ccc(Cl)cc3)cnc2c1F [Example 88, N-(4-Chlorobenzyl)-6,8-difluoro-4-hydroxy-7-[(2-methoxyethyl)amino]-3-quinolinecarboxamide]
23 | 5.14 | N#CCCCC#Cc1cc(F)c2ncc(C(=O)NCc3ccc(Cl)cc3)c(O)c2c1 [Example 89, N-(4-Chlorobenzyl)-6-(5-cyano-1-pentynyl)-8-fluoro-4-hydroxy-3-quinolinecarboxamide]
24 | 5.54 | O=C(NCc1ccc(Cl)cc1)c1cnc2c(F)cc(-c3ccccn3)cc2c1O [Example 90, N-(4-Chlorobenzyl)-8-fluoro-4-hydroxy-6-(2-pyridinyl)-3-quinolinecarboxamide]
25 | 5.42 | O=C(NNc1ccc(Cl)cc1)c1cnc2ccc(I)cc2c1O [Example 91, 4-Hydroxy-6-iodo-3-quinolinecarboxylic acid 2-(4-chlorophenyl)hydrazide]
26 | 4.69 | O=C(NCc1ccc(Cl)cc1)c1cnc2c(F)cc(C#Cc3ccccn3)cc2c1O [Example 92, N-(4-Chlorobenzyl)-8-fluoro-4-hydroxy-6-[2-(2-pyridinyl)ethynyl]-3-quinolinecarboxamide]
27 | 5.28 | O=C(NCc1ccc(Cl)cc1)c1cnc2c(F)cc(C#CCCO)cc2c1O [Example 94, N-(4-Chlorobenzyl)-8-fluoro-4-hydroxy-6-(4-hydroxy-1-butynyl)-3-quinolinecarboxamide]
28 | 5.72 | COCC#Cc1cc(F)c2ncc(C(=O)NCc3ccc(Cl)cc3)c(O)c2c1 [Example 95, N-(4-Chlorobenzyl)-8-fluoro-4-hydroxy-6-(3-methoxy-1-propynyl)-3-quinolinecarboxamide]
29 | 5.35 | CC(O)C#Cc1cc(F)c2ncc(C(=O)NCc3ccc(Cl)cc3)c(O)c2c1 (stereo not shown) [Example 96, N-(4-Chlorobenzyl)-8-fluoro-4-hydroxy-6-(3-hydroxy-1-butynyl)-3-quinolinecarboxamide]
30 | 4.73 | O=C(NCc1ccc(Cl)cc1)c1cnc2c(F)cc(-c3cc(Br)cs3)cc2c1O [Example 97, 6-(4-Bromo-2-thienyl)-N-(4-chlorobenzyl)-8-fluoro-4-hydroxy-3-quinolinecarboxamide]
31 | 5.89 | NNC(=S)c1cc(F)c2ncc(C(=O)NCc3ccc(Cl)cc3)c(O)c2c1 [Example 98, N-(4-Chlorobenzyl)-8-fluoro-6-(hydrazinocarbothioyl)-4-hydroxy-3-quinolinecarboxamide]
32 | 5.17 | Cc1nnc(-c2cc(F)c3ncc(C(=O)NCc4ccc(Cl)cc4)c(O)c3c2)s1 [Example 100, N-(4-Chlorobenzyl)-8-fluoro-4-hydroxy-6-(5-methyl-1,3,4-thiadiazol-2-yl)-3-quinolinecarboxamide]
33 | 4.59 | O=C(NCc1ccc(Cl)cc1)c1cnc2cc(C#CCO)ccc2c1O [Example 101, N-(4-Chlorobenzyl)-4-hydroxy-7-(3-hydroxy-1-propynyl)-3-quinolinecarboxamide]
34 | 5.34 | NC(=S)c1ccc2c(O)c(C(=O)NCc3ccc(Cl)cc3)cnc2c1 [Example 102, 7-(Aminocarbothioyl)-N-(4-chlorobenzyl)-4-hydroxy-3-quinoline-carboxamide]
